Test results reported in article PMC10937556, “Phenolic phytochemistry, in vitro, in silico, in vivo, and mechanistic anti-inflammatory and antioxidant evaluations of Habenaria digitata” (Frontiers in Pharmacology, 2024).
Read-outs that look alike come from different tables or passages of the source.

Tests used:
[1] = ABTS free radical scavenging assay
Method: The ABTS anti-radicals’ analysis was carried out according to [Shah et al. (2015)]. The ABTS solution was prepared by dissolving ABTS salt (192 mg) in distilled H2O, transferred to a flask (50 mL), and volume was adjusted. Thereafter, 1 mL of the preceding solution was added to 17 µL of K₂S₂O₈ (140 mM) and placed in the dark for 24 h s. The experiment’s ultimate ABTS dilution was achieved by mixing 1 mL of the reaction mixture with 50 mL of methanol. The ABTS solution (190 µL) was mixed with the sample solution (10 µL) and added to 96-well plates, which were then incubated at room temperature in dark for 2 h. Following incubation, the measurement of ABTS color intensity was conducted using a microplate reader at 734 nm. Positive control solutions were prepared at values of 1,000–62.5 µM. The percentage of ABTS scavenging was determined by using the following equation: % ABTS scavenging=Control−Sample/control×100.

[2] = DPPH free radical scavenging assay
Method: The DPPH (anti-radicals) investigation was carried out according to our earlier reported protocols. Initially, a methanolic DPPH solution was prepared with a concentration of 0.1%. Subsequently, 100 µL of this solution was mixed with an equal volume of the test samples (100 µL) in 96-well plates, following a 30-min incubation period at 25°C ± 3 °C in the dark. Solutions with concentrations ranging from […] were prepared. Five concentrations of 1,000, 500, 250, 125, and 62.5 µM of the Trolox methanolic solution ([…]) were formed. A color reduction in DPPH was observed after incubation; a microplate reader was used, and absorbance was measured at 540 nm ([Mahnashi et al., 2022a]; [Huneif et al., 2022]). The percentage of scavenging was determined by the formula: Scavenging effect %=control absorbance−sample absorbance/control absorbance×100.

COX-1 = COX-1 (Ovis aries, UniProt P05979); experiment: Cyclooxygenase COX-1 inhibition assay; assay type: biochemical; settings: for inhibition at 62.5 µg/mL / inhibition at 125 µg/mL / inhibition at 500 µg/mL: read-out: % COX-1 inhibition; for inhibition at 1000 µg/mL: 1,000 µg/mL
COX-1, sequence (P05979 25-600): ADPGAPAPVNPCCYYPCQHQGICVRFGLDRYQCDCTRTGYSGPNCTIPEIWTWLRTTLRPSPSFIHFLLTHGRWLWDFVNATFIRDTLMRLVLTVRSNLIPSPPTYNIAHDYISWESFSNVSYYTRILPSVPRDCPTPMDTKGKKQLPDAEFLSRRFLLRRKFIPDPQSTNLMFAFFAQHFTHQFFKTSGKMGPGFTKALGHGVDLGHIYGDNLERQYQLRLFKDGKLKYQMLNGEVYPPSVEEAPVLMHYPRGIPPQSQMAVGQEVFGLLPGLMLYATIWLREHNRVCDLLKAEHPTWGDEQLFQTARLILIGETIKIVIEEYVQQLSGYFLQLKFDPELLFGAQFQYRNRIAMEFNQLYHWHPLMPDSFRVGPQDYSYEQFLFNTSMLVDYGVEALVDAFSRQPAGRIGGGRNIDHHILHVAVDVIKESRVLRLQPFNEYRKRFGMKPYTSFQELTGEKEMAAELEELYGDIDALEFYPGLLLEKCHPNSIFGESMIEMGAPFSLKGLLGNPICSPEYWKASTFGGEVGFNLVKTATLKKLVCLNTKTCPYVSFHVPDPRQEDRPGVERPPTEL

| ABTS IC50 [1] [µg/mL] | DPPH IC50 [2] [µg/mL] | inhibition at 62.5 µg/mL (COX-1; 62.50 μg/mL) [%] | inhibition at 125 µg/mL (COX-1; 125 µg/mL) [%] | inhibition at 250 µg/mL (COX-1) [%] | inhibition at 500 µg/mL (COX-1; 500 µg/mL) [%] | inhibition at 1000 µg/mL (COX-1) [%] | Compound | ABTS % inhibition ([1]; 62.5 µg/mL) [%] | ABTS % inhibition ([1]; 125 µg/mL) [%] | ABTS % inhibition ([1]; 250 µg/mL) [%] | ABTS % inhibition ([1]; 500 µg/mL) [%] | ABTS % inhibition ([1]; 1,000 µg/mL) [%] | DPPH % inhibition ([2]; 62.5 µg/mL) [%] | DPPH % inhibition ([2]; 125 µg/mL) [%] | DPPH % inhibition ([2]; 250 µg/mL) [%] | DPPH % inhibition ([2]; 500 µg/mL) [%] | DPPH % inhibition ([2]; 1,000 µg/mL) [%] | inhibition at 62.5 µg/mL (COX-1) [%] | inhibition at 125 µg/mL (COX-1) [%] | inhibition at 500 µg/mL (COX-1) [%] |
| --- | --- | --- | --- | --- | --- | --- | --- | --- | --- | --- | --- | --- | --- | --- | --- | --- | --- | --- | --- | --- |
| 42 | 40 | 33 ± 1.15 | 42.7 ± 0.89 | 49 ± 0.58 | 63.03 ± 0.23 | 71.33 ± 0.49 | C=Cc1ccc(O)cc1OC [Compound 4, 3-methoxy-4-vinylphenol] | 57.00 ± 1.15 | 61.67 ± 0.89 | 65.00 ± 0.58 | 72.03 ± 0.23 | 75.33 ± 0.49 | 58.15 ± 0.22 | 63.36 ± 0.71 | 68.39 ± 0.35 | 73.42 ± 0.12 | 77.73 ± 0.03 |  |  |  |
| 30 | 16 | 29.15 ± 0.22 | 41.4 ± 0.71 | 47.39 ± 0.35 | 57.42 ± 0.12 | 67.73 ± 0.03 | C=Cc1cc(OC)c(O)c(OC)c1 [Compound 5, 2,6-dimethoxy-4-vinylphenol] | 60.59 ± 0.30 | 63.08 ± 1.04 | 68.76 ± 0.61 | 74.31 ± 0.58 | 79.49 ± 0.60 | 60.48 ± 0.23 | 63.99 ± 0.19 | 67.05 ± 0.13 | 71.75 ± 0.21 | 75.28 ± 0.42 |  |  |  |

| Compound | ABTS IC50 [1] [µg/mL] | DPPH IC50 [2] [µg/mL] | inhibition at 62.5 µg/mL (COX-1; 62.50 μg/mL) [%] | inhibition at 125 µg/mL (COX-1; 125 µg/mL) [%] | inhibition at 250 µg/mL (COX-1) [%] | inhibition at 500 µg/mL (COX-1; 500 µg/mL) [%] | inhibition at 1000 µg/mL (COX-1) [%] | ABTS % inhibition ([1]; 62.5 µg/mL) [%] | ABTS % inhibition ([1]; 125 µg/mL) [%] | ABTS % inhibition ([1]; 250 µg/mL) [%] | ABTS % inhibition ([1]; 500 µg/mL) [%] | ABTS % inhibition ([1]; 1,000 µg/mL) [%] | DPPH % inhibition ([2]; 62.5 µg/mL) [%] | DPPH % inhibition ([2]; 125 µg/mL) [%] | DPPH % inhibition ([2]; 250 µg/mL) [%] | DPPH % inhibition ([2]; 500 µg/mL) [%] | DPPH % inhibition ([2]; 1,000 µg/mL) [%] | inhibition at 62.5 µg/mL (COX-1) [%] | inhibition at 125 µg/mL (COX-1) [%] | inhibition at 500 µg/mL (COX-1) [%] |
| --- | --- | --- | --- | --- | --- | --- | --- | --- | --- | --- | --- | --- | --- | --- | --- | --- | --- | --- | --- | --- |
| Cc1ccc(C(C)C)c(O)c1 [Compound 3, 2-isopropyl-5-methylphenol] | 21 | 17 |  |  |  |  |  | 65.00 ± 0.30 | 72.54 ± 0.50 | 76.69 ± 0.77 | 83.67 ± 0.61 | 87.79 ± 0.63 | 62.98 ± 0.72 | 67.90 ± 0.96 | 72.91 ± 0.88 | 77.08 ± 0.47 | 81.03 ± 0.35 | 41.3 ± 1.01 | 46.7 ± 0.78 | 57.9 ± 0.97 |
